From patent EP4603105A1, “PHARMACEUTICAL COMPOSITION CONTAINING CYCLIC COMPOUND HAVING SELECTIVE KRAS INHIBITORY EFFECT AGAINST HRAS AND NRAS” (CHUGAI SEIYAKU KABUSHIKI KAISHA, priority 2022, dated 2024)

Tests used:
[1] = tested on: human lung cancer strain NCI-H441; assay: NCI-H441 cell proliferation inhibitory activity (CellTiter-Glo, 4 days); type: cell-based; settings: NCI-H441 cells, 4 days, read-out: NCl-H441 IC50
Method in brief: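 Signal came from […] measured per well once the reagent was added. Beforehand, cells were cultured at 37°C and 5% carbon dioxide on a compound series serially diluted in dimethyl sulfoxide.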

[2] = target: GDP-bound NRAS wild-type protein (Homo sapiens, UniProt P01111); assay: Binding to NRAS by surface plasmon resonance (SPR), KD and KD ratio to KRAS; settings: ratio of KD for GDP-bound NRAS wild-type protein to KD for KRAS
Method in brief: (§1)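 Recombinant RAS proteins bearing a biotinylated Avi tag and loaded with GDP served as the captured ligand, recaptured fresh every cycle. Binding responses were referenced to an uncoated surface and a buffer-only blank cycle. Dissociation constants were obtained by 1:1 model fitting at 30°C.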

[3] = target: HRAS wild-type protein (Homo sapiens, UniProt P01112); assay: Binding to HRAS by surface plasmon resonance (SPR), KD and KD ratio to KRAS; settings: ratio of KD for HRAS wild-type protein to KD for KRAS
Method in brief: as §1

[4] = target: GDP-bound KRAS wild-type protein (Homo sapiens, UniProt P01116); assay: Binding to KRAS by surface plasmon resonance (SPR), dissociation constant KD; settings: Single Cycle Kinetics
Method in brief: as §1

Chain of HRAS wild-type protein (P01112 whole entry): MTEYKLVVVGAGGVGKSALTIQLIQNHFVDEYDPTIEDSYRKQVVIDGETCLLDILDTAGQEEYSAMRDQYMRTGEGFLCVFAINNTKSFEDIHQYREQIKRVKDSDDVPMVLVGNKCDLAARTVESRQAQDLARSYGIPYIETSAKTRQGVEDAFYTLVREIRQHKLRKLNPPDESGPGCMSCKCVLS
Chain of GDP-bound KRAS wild-type protein (P01116 1-188 isoform P01116-2): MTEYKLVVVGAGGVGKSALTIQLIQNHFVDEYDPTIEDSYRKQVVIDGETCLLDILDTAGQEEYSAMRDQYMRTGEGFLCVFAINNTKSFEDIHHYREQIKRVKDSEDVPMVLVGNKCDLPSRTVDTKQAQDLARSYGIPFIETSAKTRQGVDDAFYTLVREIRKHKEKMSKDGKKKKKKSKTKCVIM
Chain of GDP-bound NRAS wild-type protein (P01111 whole entry): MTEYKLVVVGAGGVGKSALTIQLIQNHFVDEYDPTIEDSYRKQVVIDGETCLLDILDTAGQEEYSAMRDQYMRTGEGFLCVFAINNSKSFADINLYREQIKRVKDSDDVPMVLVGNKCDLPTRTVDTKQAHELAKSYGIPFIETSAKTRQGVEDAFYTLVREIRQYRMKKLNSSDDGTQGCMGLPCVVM

CCC[C@H]1C(=O)N[C@@H]([C@@H](C)CC)C(=O)N2CCCC[C@H]2C(=O)N(C)[C@H]2C/C=C\CCN(C2=O)[C@@H](Cc2ccc(C)cc2)C(=O)N(C)CC(=O)N[C@@H](CCc2cc(F)c(C(F)(F)F)c(F)c2)C(=O)N2C[C@H](OCC)C[C@H]2C(=O)N(C)C2(CCC2)C(=O)N(C)[C@@H](C2CCCC2)C(=O)N(C)[C@H](C(=O)N(C)C)CC(=O)N1C [PP3274]
IC50 [1]: 25.1 nM
NRAS /KRAS [2]: A (a compound having 10 or more and less than 20 is denoted as A)
HRAS /KRAS [3]: B (a compound having 3 or more and less than 10 is denoted as B)
Kd [4]: 0.81 nM

CCC[C@H]1C(=O)N[C@@H]([C@@H](C)CC)C(=O)N2CCCC[C@H]2C(=O)N(C)[C@H]2C/C=C\CCN(C2=O)[C@@H](Cc2ccc(C)cc2)C(=O)N(C)CC(=O)N[C@@H](CCc2ccc(C(F)(F)F)c(Cl)c2)C(=O)N2C[C@H](OCC)C[C@H]2C(=O)N(C)C2(CCC2)C(=O)N(C)[C@@H](C2CCCC2)C(=O)N(C)[C@H](C(=O)N(C)C)CC(=O)N1C [PP3275]
IC50 [1]: 84.8 nM
NRAS /KRAS [2]: B (a compound having 3 or more and less than 10 is denoted as B)
HRAS /KRAS [3]: B (a compound having 3 or more and less than 10 is denoted as B)
Kd [4]: 1.7 nM

CCC[C@H]1C(=O)N[C@@H]([C@@H](C)CC)C(=O)N2CCCCC[C@H]2C(=O)N(C)[C@H]2C/C=C\CCN(C2=O)[C@@H](Cc2ccc(C(F)(F)F)cc2)C(=O)N(C)CC(=O)N[C@@H](CCc2ccc(C(F)(F)F)c(OC)c2)C(=O)N2C[C@H](OCC)C[C@H]2C(=O)N(C)C2(CCC2)C(=O)N(C)[C@@H](C2CCCC2)C(=O)N(C)[C@H](C(=O)N(C)C)CC(=O)N1C [PP3276]
IC50 [1]: 105 nM
NRAS /KRAS [2]: A (a compound having 10 or more and less than 20 is denoted as A)
HRAS /KRAS [3]: A (a compound having 10 or more and less than 20 is denoted as A)
Kd [4]: 4 nM

CCC[C@H]1C(=O)N[C@@H]([C@@H](C)CC)C(=O)N2CCCCC[C@H]2C(=O)N(C)[C@H]2C/C=C\CCN(C2=O)[C@@H](Cc2ccc(C)cc2)C(=O)N(C)CC(=O)N[C@@H](CCc2ccc(C(F)(F)F)c(OC)c2)C(=O)N2C[C@H](OCC)C[C@H]2C(=O)N(C)C2(CCC2)C(=O)N(C)[C@@H](C2CCCC2)C(=O)N(C)[C@H](C(=O)N(C)C)CC(=O)N1C [PP3279]
IC50 [1]: 144 nM
NRAS /KRAS [2]: A (a compound having 10 or more and less than 20 is denoted as A)
HRAS /KRAS [3]: B (a compound having 3 or more and less than 10 is denoted as B)
Kd [4]: 4.5 nM

CCC[C@H]1C(=O)N[C@@H]([C@@H](C)CC)C(=O)N(C2CC2)CC(=O)N(C)[C@H]2C/C=C\CCN(C2=O)[C@@H](Cc2ccc(C(F)(F)F)cc2)C(=O)N(C)CC(=O)N[C@@H](CCc2cc(F)c(C(F)(F)F)c(F)c2)C(=O)N2CC[C@H](OC)[C@H]2C(=O)N(C)C2(CCC2)C(=O)N(C)[C@@H](C2CCCC2)C(=O)N(C)[C@H](C(=O)N(C)C)CC(=O)N1C [PP3282]
IC50 [1]: 8.3 nM
NRAS /KRAS [2]: A (a compound having 10 or more and less than 20 is denoted as A)
HRAS /KRAS [3]: A (a compound having 10 or more and less than 20 is denoted as A)
Kd [4]: 0.2 nM

CCC[C@H]1C(=O)N[C@@H]([C@@H](C)CC)C(=O)N2CCC[C@H]2C(=O)N(C)[C@H]2C/C=C\CCN(C2=O)[C@@H](Cc2ccc(C(F)(F)F)cc2)C(=O)N(C)CC(=O)N[C@@H](CCc2cc(F)c(C(F)(F)F)c(F)c2)C(=O)N2CC[C@H](OC)[C@H]2C(=O)N(C)C2(CCC2)C(=O)N(C)[C@@H](C2CCCC2)C(=O)N(C)[C@H](C(=O)N(C)C)CC(=O)N1C [PP3283]
IC50 [1]: 7.5 nM
NRAS /KRAS [2]: A (a compound having 10 or more and less than 20 is denoted as A)
HRAS /KRAS [3]: A (a compound having 10 or more and less than 20 is denoted as A)
Kd [4]: 0.26 nM

CCC[C@H]1C(=O)N[C@@H]([C@@H](C)CC)C(=O)N(C)CC(=O)N(C)[C@H]2C/C=C\CCN(C2=O)[C@@H](Cc2ccc(C(F)(F)F)cc2)C(=O)N(C)CC(=O)N[C@@H](CCc2cc(F)c(C(F)(F)F)c(F)c2)C(=O)N2CC[C@H](OC)[C@H]2C(=O)N(C)C2(CCC2)C(=O)N(C)[C@@H](C2CCCC2)C(=O)N(C)[C@H](C(=O)N(C)C)CC(=O)N1C [PP3284]
IC50 [1]: 5 nM
NRAS /KRAS [2]: A (a compound having 10 or more and less than 20 is denoted as A)
HRAS /KRAS [3]: A (a compound having 10 or more and less than 20 is denoted as A)
Kd [4]: 0.067 nM

CCC[C@H]1C(=O)N[C@@H]([C@@H](C)CC)C(=O)N(C2CC2)CC(=O)N(C)[C@H]2C/C=C\CCN(C2=O)[C@@H](Cc2ccc(C)cc2)C(=O)N(C)CC(=O)N[C@@H](CCc2cc(F)c(C(F)(F)F)c(F)c2)C(=O)N2CC[C@H](OC)[C@H]2C(=O)N(C)C2(CCC2)C(=O)N(C)[C@@H](C2CCCC2)C(=O)N(C)[C@H](C(=O)N(C)C)CC(=O)N1C [PP3285]
IC50 [1]: 9.3 nM
NRAS /KRAS [2]: A (a compound having 10 or more and less than 20 is denoted as A)
HRAS /KRAS [3]: A (a compound having 10 or more and less than 20 is denoted as A)
Kd [4]: 0.15 nM

CCC[C@H]1C(=O)N[C@@H]([C@@H](C)CC)C(=O)N2CCC[C@H]2C(=O)N(C)[C@H]2C/C=C\CCN(C2=O)[C@@H](Cc2ccc(C)cc2)C(=O)N(C)CC(=O)N[C@@H](CCc2cc(F)c(C(F)(F)F)c(F)c2)C(=O)N2CC[C@H](OC)[C@H]2C(=O)N(C)C2(CCC2)C(=O)N(C)[C@@H](C2CCCC2)C(=O)N(C)[C@H](C(=O)N(C)C)CC(=O)N1C [PP3286]
IC50 [1]: 11.4 nM
NRAS /KRAS [2]: A (a compound having 10 or more and less than 20 is denoted as A)
HRAS /KRAS [3]: A (a compound having 10 or more and less than 20 is denoted as A)
Kd [4]: 0.15 nM

CCC[C@H]1C(=O)N[C@@H]([C@@H](C)CC)C(=O)N(C)CC(=O)N(C)[C@H]2C/C=C\CCN(C2=O)[C@@H](Cc2ccc(C)cc2)C(=O)N(C)CC(=O)N[C@@H](CCc2cc(F)c(C(F)(F)F)c(F)c2)C(=O)N2CC[C@H](OC)[C@H]2C(=O)N(C)C2(CCC2)C(=O)N(C)[C@@H](C2CCCC2)C(=O)N(C)[C@H](C(=O)N(C)C)CC(=O)N1C [PP3287]
IC50 [1]: 5.4 nM
NRAS /KRAS [2]: A (a compound having 10 or more and less than 20 is denoted as A)
HRAS /KRAS [3]: B (a compound having 3 or more and less than 10 is denoted as B)
Kd [4]: 0.057 nM

CCC[C@H]1C(=O)N[C@@H]([C@@H](C)CC)C(=O)N(C2CC2)CC(=O)N(C)[C@H]2C/C=C\CCN(C2=O)[C@@H](Cc2ccc(C(F)(F)F)cc2)C(=O)N(C)CC(=O)N[C@@H](CCc2ccc(C(F)(F)F)c(Cl)c2)C(=O)N2CC[C@H](OC)[C@H]2C(=O)N(C)C2(CCC2)C(=O)N(C)[C@@H](C2CCCC2)C(=O)N(C)[C@H](C(=O)N(C)C)CC(=O)N1C [PP3288]
IC50 [1]: 6.9 nM
NRAS /KRAS [2]: A (a compound having 10 or more and less than 20 is denoted as A)
HRAS /KRAS [3]: A (a compound having 10 or more and less than 20 is denoted as A)
Kd [4]: 0.21 nM

CCC[C@H]1C(=O)N[C@@H]([C@@H](C)CC)C(=O)N2CCC[C@H]2C(=O)N(C)[C@H]2C/C=C\CCN(C2=O)[C@@H](Cc2ccc(C(F)(F)F)cc2)C(=O)N(C)CC(=O)N[C@@H](CCc2ccc(C(F)(F)F)c(Cl)c2)C(=O)N2CC[C@H](OC)[C@H]2C(=O)N(C)C2(CCC2)C(=O)N(C)[C@@H](C2CCCC2)C(=O)N(C)[C@H](C(=O)N(C)C)CC(=O)N1C [PP3289]
IC50 [1]: 17.6 nM
NRAS /KRAS [2]: A (a compound having 10 or more and less than 20 is denoted as A)
HRAS /KRAS [3]: A (a compound having 10 or more and less than 20 is denoted as A)
Kd [4]: 0.26 nM

CCC[C@H]1C(=O)N[C@@H]([C@@H](C)CC)C(=O)N(C)CC(=O)N(C)[C@H]2C/C=C\CCN(C2=O)[C@@H](Cc2ccc(C)cc2)C(=O)N(C)CC(=O)N[C@@H](CCc2ccc(C(F)(F)F)c(OC)c2)C(=O)N2CC3(CC3)C[C@H]2C(=O)N(C)C2(CCC2)C(=O)N(C)[C@@H](C2CCCC2)C(=O)N(C)[C@H](C(=O)N(C)C)CC(=O)N1C [PP3290]
IC50 [1]: 1.9 nM
NRAS /KRAS [2]: A (a compound having 10 or more and less than 20 is denoted as A)
HRAS /KRAS [3]: B (a compound having 3 or more and less than 10 is denoted as B)
Kd [4]: 0.021 nM

CCC[C@H]1C(=O)N[C@@H]([C@@H](C)CC)C(=O)N(C)CC(=O)N(C)[C@H]2C/C=C\CCN(C2=O)[C@@H](Cc2ccc(C(F)(F)F)cc2)C(=O)N(C)CC(=O)N[C@@H](CCc2ccc(C(F)(F)F)c(OC)c2)C(=O)N2CC3(CC3)C[C@H]2C(=O)N(C)C2(CCC2)C(=O)N(C)[C@@H]([C@@H](C)CC)C(=O)N(C)[C@H](C(=O)N(C)C)CC(=O)N1C [PP3291]
IC50 [1]: 3.7 nM
NRAS /KRAS [2]: A (a compound having 10 or more and less than 20 is denoted as A)
HRAS /KRAS [3]: B (a compound having 3 or more and less than 10 is denoted as B)
Kd [4]: 0.85 nM
